According to US20130310347A1, “MULTI-MODALITY MOLECULAR IMAGING HIGH-THROUGHPUT ASSAY FOR IDENTIFYING HEAT SHOCK PROTEIN 90 (HSP90) INHIBITORS” (The Board of Trustees of the Leland Stanford Junior …, priority 2012, published 2013):

What was measured:
[1] = test system: pAkt/total Akt and Raf-1; assay: Western blotting of client proteins in 293T-FG cells (CP9 analogues); type: cell-based, human; settings: different concentrations
Method: Cells treated with PU-H71 and 17-AAG (2.5 μM) served as positive controls. α-Tubulin was used as the loading control.
To determine if the reduction in IC50 for Hsp90(α/β)/p23 interactions also led to improved efficacy of A17 as an Hsp90 inhibitor, 293T-FG cells were treated with different concentrations of CP9 and A17. PU-H71 and 17AAG were used as positive controls. The expression of pAkt/total Akt and Raf-1 was determined by western blotting. […] Since A17 has a lower logP value (partition coefficient) than CP9 (2.8 versus 4.1), it may be more hydrophilic, have less non-specific binding to serum proteins and thus better bioavailability in tumors.
CP9 (0.3-10 μM), 17-AAG (10 μM) and PU-H71 (5 μM) were used as positive controls in triplicate wells. The efficacy of the analogues in disruption of Hsp90(α/β)/p23 and cell proliferation were monitored by RL imaging (2 h post upon addition of ENDUREN® at 30 μM final concentration) followed by FL imaging (10 mins post addition of D-Luc at 0.225 mg/ml final concentration) using a cooled CCD camera (1 min and 10 sec for RL and FL imaging, respectively). RL signals were normalized to that of FL signals to account for the effect of the analogues on cell proliferation. […] The effect of the CP9 analogues on degradation of Hsp90 client proteins in 293T cells were also monitored by western blotting as described above.

[2] = test system: normal MEFs; assay: Alamar Blue cell proliferation; type: cell-based, mouse
Source text: (§1) CP9 had no effect on proliferation of normal MEFs. Since CP9 led to decrease in phosphorylated Akt (FIGS. 5A and 10A-10C), it was expected to inhibit glucose metabolism through relief of inhibition of glycogen synthase kinase […] (Nair & Olanow (2008) J. Biol. Chem. M707238200; Dandekar et al., (2007) J. Nucl. Med. 48: 602-607).

[3] = test system: U87-MG cells; assay: Alamar Blue cell proliferation; type: cell-based, human; settings: 24 h
Method: FIG. 6A is a series of graphs illustrating the effect of CP9 on cell proliferation determined by an Alamar Blue assay. The indicated cancer cell lines were treated with different concentrations of CP9 for 24 h prior to incubation with Alamar blue for 4 h. The Hsp90 inhibitors PU-H71 and 17AAG were used as positive controls. Emissions at 570 nm in CP9-treated cells were normalized to that of carrier control-treated cells. Results are expressed as normalized cell proliferation±S.E.M.
as §1

[4] = test system: Hsp90 client proteins (phosphorylated/total Akt, Raf-1); assay: Ex vivo western blotting of excised tumors; type: in vivo, mice; settings: western blotting after last imaging time point; p>0.05
Method: To determine if the inhibition of Hsp90(α/β)/p23 interactions also leads to degradation of Hsp90 client proteins in mice, tumors were excised from sacrificed mice after the last PET/CT imaging time point. The expression of phosphorylated/total Akt and Raf-1 in tumor lysates was determined by western blotting. α-tubulin was used as a loading control.
Mice were euthanized after the last imaging time points and tumors were excised and homogenized in tissue extraction buffer in the presence of HALT® protease and phosphatase inhibitors (all from Pierce, Ill.). Protein concentrations were determined by Biorad Protein Dc assay. The expression of phosphorylated/total Akt, Raf-1 and […] were determined by western blotting as described in Chan et al., (2008) Cancer Res. 68: 216-226. Western blot images were quantitated using NIH Image J, and expressed as the ratio of target protein/α-tubulin for each treatment group.

[5] = test system: cellular Hsp90; assay: 3H-17AAG uptake in intact HT29 cells; type: cell-based; settings: CP9 0.4 to 12.5 μM, 3H-17AAG 0.5 μM, 1 h, dose-dependent, p<0.05
Method: FIG. 5D is a graph illustrating the inhibition of ^3H-17AAG uptake by CP9 in HT29 cells. HT29 cells were pre-incubated with different concentrations of CP9 together with ^3H-17AAG (0.5 μM) for 1 h followed by 1 h of wash-out of unbound ^3H-17AAG in fresh medium. The amount of ^3H-17-AAG incorporated intracellularly was determined by scintillation counting of cell lysates, followed by normalization for protein content and to carrier control-treated cells. Cells incubated with 5 μM of PU-H71 served as a positive control. Results are expressed as means of triplicates±S.E.M. *, p<0.05 vs. carrier control-treated cells.
To confirm the direct binding of CP9 to Hsp90(α/β), an in vitro competitive binding assay using purified Hsp90α and Hsp90β was performed using radiolabeled Hsp90 inhibitor ^3H-17AAG. Hsp90 proteins were pre-bound with CP9 or cold 17-AAG as a control prior to incubation with ^3H-17AAG. Unbound ^3H-17AAG was removed and the amount of ^3H-17AAG bound to the Hsp90 proteins was determined. […]
To determine if CP9 binds to cellular Hsp90, an uptake study of ^3H-17AAG (Moravek Biochemicals, Brea, Calif.) was performed. […] The total counts in each sample were normalized to that of the dose added to each well and to the amount of protein, and expressed as mean counts/dose/μg protein±S.E.M.

With `Cc1cc(NC(=O)CSc2nc(-c3cccs3)cc(C(F)(F)F)n2)no1` [CP9, N-(5-methylisoxazol-3-yl)-2-(4-(thiophen-2-yl)-6-(trifluoromethyl)pyrimidin-2-ylthio)acetamide] the “degradation of pAkt/total Akt and Raf-1” value [1] was “dose-dependent decreases”, the “proliferation of normal MEFs” value [2] was “no effect” and the “inhibition of cell proliferation vs PU-H71 and 17-AAG” value [3] was “more effective than PU-H71 and 17-AAG”. The “Hsp90 client proteins in excised tumors relative to carrier control” value [4] was “did not lead to significant degradation” and the “maximum reduction in uptake of 3H-17AAG relative to carrier control” value [5] was 30%.
